# In US20250282799A1, “SUBSTITUTED PYRIDO[4,3-d]PYRIMIDINES AS KRAS MODULATORS” (Alterome Therapeutics, Inc., priority 2023, published 2025):
# Legend:
# [1] = system: KRAS G12V dependent lung adenocarcinoma cell line, NCI-H441; experiment: Cellular pERK (Thr202/Tyr204) FRET/HTRF assay; format: cell-based; conditions: Homo sapiens
# Summary of the method: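 Read-out is a wash-free FRET sandwich immunoassay for endogenous ERK1/2 phosphorylated on Thr202/Tyr204. Signal was measured in NCI-H441 lung adenocarcinoma cells after 1 hr compound exposure at 37 °C. IC50 values come from fitted concentration-response curves.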
# [2] = Pharmacokinetic evaluation, single dosing (oral and intravenous) in rats; format: in vivo, male Sprague-Dawley rats; design: unit not given here; conditions: rat, plasma
# Description: Pharmacokinetic profile for test compound was measured by single dosing in male Sprague-Dawley rats. Animal weights were typically over 200 grams, and animals were allowed to acclimate to their new environment for at least 3 days prior to the initiation of any studies. One set of animals was dosed intravenous with test compound, 2 mg/kg in 20% PEG400, 10% HS-15 Solutol, 70% 50 mM citrate buffer (pH 4.0). Intravenous dosing solution concentration was 1.0 mg/mL. Time of blood sampling was 5 minutes, 15 minutes, 30 minutes, 1 hour, 2 hours, 4 hours, 8 hours, and 24 hours following intravenous dosing. Another set of animals was dosed orally with test compound, 30 mg/kg in 20% PEG400, 10% HS-15 Solutol, 70% 50 mM citrate buffer (pH 4.0). Oral dosing solution concentration was 3.0 mg/mL. Time of blood sampling was 15 minutes, 30 minutes, 1 hour, 2 hours, 4 hours, 8 hours, and 24 hours following oral dosing. Blood samples (˜0.2 mL/sample) were collected via jugular vein and placed in tubes containing Heparin-Na. The blood samples in tubes were mixed and then placed on wet ice prior to centrifugation for plasma. The blood samples were centrifuged at 4000 g for 5 minutes at 4° C. to obtain plasma. The obtained plasma was separated and stored frozen at approximately −80° C.
# All the plasma samples were analyzed using a Shimadzu (DGU-405) HPLC with an API 6500+MS/MS system following the manufacturer's instructions. All the analytes were detected with positive-mode electrospray ionization (ES+). A standard curve for each test compound was generated and used to measure test compound concentrations in the rat plasma samples. Based on the time course sampling, an area under the curve (AUC) was calculated for the oral group and intravenous group. The percentage of rat bioavailability is calculated based on the equation shown below.
# where F is bioavailability, AUCPO is area under curve of oral dosing, AUCIV is area under curve of intravenous dosing, DoseIV is the intravenous dose and DosePO is the oral dose. The oral dosing for the experiments presented in Table 5 was performed at 10 mg/kg unless noted otherwise.
# [3] = NCI-H441, pERK HTRF, NCI-H441 cells (KRAS G12V)
"IC50 ([1]; NCI-H441, cellular pERK (Thr202/Tyr204) HTRF, NCI-H441 cells)",IV (dose 2 mg/kg) (AUC/D) (h*mg/mL) [2],PO (dose 10 mg/kg) (AUC/D) (h*mg/mL) [2],"IC50 [1, 3]",SMILES
< 50 nM,1066,97,,"[2H]C([2H])(Oc1nc(N2CCOC[C@H]3[C@H](F)[C@H]32)c2cnc(-c3cc(N)cc4ccc(Cl)c(C#C)c34)c(F)c2n1)[C@@]12CCCN1C[C@H](F)C2 [Example 267, 6-Chloro-5-ethynyl-4-(8-fluoro-4-((1S,7S,8S)-8-fluoro-5-oxa-2-azabicyclo[5.1.0]octan-2-yl)-2-(((2R,7aS)-2-fluorotetrahydro-1H-pyrrolizin-7a(5H)-yl)methoxy-d2)pyrido[4,3-d]pyrimidin-7-yl)naphthalen-2-amine]"
,1401,432,< 50 nM,"[2H]C([2H])([2H])Oc1c(F)ccc2cc(N)cc(-c3ncc4c(N5CCCC[C@H]6[C@H](F)[C@H]65)nc(OC([2H])([2H])[C@@]56CCCN5C[C@H](F)C6)nc4c3F)c12 [Example 58, 6-Fluoro-4-(8-fluoro-4-((1S,7R,8S)-8-fluoro-2-azabicyclo[5.1.0]octan-2-yl)-2-(((2R,7aS)-2-fluorotetrahydro-1H-pyrrolizin-7a(5H)-yl)methoxy-d2)pyrido[4,3-d]pyrimidin-7-yl)-5-(methoxy-d3)naphthalen-2-amine]"
,609,142,< 50 nM,"[2H]C([2H])([2H])Oc1c(F)ccc2cc(N)cc(-c3ncc4c(N5CCCO[C@H]6[C@H](F)[C@H]65)nc(OC([2H])([2H])[C@@]56CCCN5C[C@H](F)C6)nc4c3F)c12 [Example 91, 6-Fluoro-4-(8-fluoro-4-((1R,7S,8R)-8-fluoro-2-oxa-6-azabicyclo[5.1.0]octan-6-yl)-2-(((2R,7aS)-2-fluorotetrahydro-1H-pyrrolizin-7a(5H)-yl)methoxy-d2)pyrido[4,3-d]pyrimidin-7-yl)-5-(methoxy-d′3) naphthalen-2-amine]"
,323,22,< 50 nM,"[2H]C([2H])(Oc1nc(N2CCCO[C@H]3C(F)[C@H]32)c2cnc(-c3cc(N)cc4ccc(F)c(C#C)c34)c(F)c2n1)[C@@]12CCCN1C[C@H](F)C2 (stereo in doubt) [Example 89, 5-Ethynyl-6-fluoro-4-(8-fluoro-4-((1R,7S,8R)-8-fluoro-2-oxa-6-azabicyclo[5.1.0]octan-6-yl)-2-(((2R,7aS)-2-fluorotetrahydro-1H-pyrrolizin-7a(5H)-yl)methoxy-d2)pyrido[4,3-d]pyrimidin-7-yl)naphthalen-2-amine]"
